According to patent US20140045885A1, “Decoquinate, 4-hydroxyquinolones and napthoquinones combined with levamisole, Imidazothiazole, for the prevention and treatment of sarcocystosis and equine protozoal myeloencephalitis caused by Sarcocystis and Neospora and other apicomplexan protozoans” (priority 2012, published 2014):
Read-outs that look alike come from different tables or passages of the source.

What was measured:
[1] = tested on: EPM; conditions: cited from earlier work; for cure rate / relapse rate: EPM treatment in horses; for efficacy in horses to improve one grade of disease: EPM treatment
[2] = cited from earlier work
[3] = in vivo; cited from earlier work
[4] = cited from earlier work; remark: listed apart in the source
[5] = Safety at the treatment dose in 150 horses; format: in vivo, horse; conditions: decoquinate 0.5 mG/kG and levamisole 1 mG/kG alone and in combination
[6] = tested on: S. neurona infections or EPM; assay: Trial in horses with presumptive diagnosis of EPM; format: in vivo, horse
Protocol: A trial was initiated in which veterinarians conducted neurological examinations and determined a presumptive diagnosis of EPM. […] The phenotype of S. neurona eliciting antibody production was determined for each animal. […] A neurological exam was conducted at the end of the treatment period and two to four weeks following treatment. Two to four weeks after treatment antibody levels were again assessed for serum antibody levels to S. neurona by phenotype. […] Veterinarians involved in the study elected to start decoquinate therapy at 0.05 mG/kG if the animals had received anti-protozoal therapy in the past and the case was considered a relapse of EPM.

[7] = tested on: Sarcocystis neurona merozoites (SN2 strain); conditions: 0.1 microgram/ml decoquinate for 10 or 20 minutes, washed off, cultures maintained 16 days, controls 40% CPE; cited from earlier work
[8] = tested on: Sarcocystis neurona merozoites (SN6 strain); conditions: 0.1 microgram/ml decoquinate for 5 or 15 minutes, washed off, read at 6 weeks; cited from earlier work
[9] = tested on: Sarcocystis neurona merozoites (SN3 strain); conditions: cited from earlier work
[10] = tested on: Sarcocystis neurona merozoites (SN3 strain); conditions: 0.1 microgram/ml decoquinate for 10 or 20 minutes, washed off, cultures maintained 16 days, controls 25% CPE; cited from earlier work
[11] = tested on: S. neurona; conditions: cell cultures infected with S. neurona; cited from earlier work
[12] = horses, 5 mg/kg daily for 10 days

## Cc1cc(-n2c(=O)[nH]c(=O)n(C)c2=O)ccc1Oc1ccc(SC(F)(F)F)cc1 [toltrazuril]
[1]
  cure rate: less than 25%
  relapse rate: 60%
  efficacy in horses to improve one grade of disease: 60%
[2]; [12]
  mean CSF concentration: 160 µg/mL
  plasma levels: 20000 ng/mL
[2]; in vivo, po
  oral absorption: good oral absorption
[2]; in vivo
  elimination time: 48 to 72 h
[3]
  complications, serum chemistry values, complete blood counts: has not been shown to result in any complications
[4]
  lipid solubility: good lipid solubility

## CCCCCCCCCCOc1cc2c(O)c(C(=O)OCC)cnc2cc1OCC [decoquinate, 6-declyoxy-7-ethoxy-4-hydroxy-3-quinoline-carboxylic acid ethyl ester]
[5]
  adverse reactions: no adverse reactions
[6]; decoquinate alone 0.05 mG/kG versus decoquinate/levamisole 0.5 mG/kG and 1.0 mg/kG
  time of therapy until noted improvement: > 5 days
[6]; prevention dose 0.05 mG/kG decoquinate alone, 90 days, 7 horses
  treatment outcome in mildly afflicted horses: success obtained in all the horses
[6]; relapse cases after Marquis (17) or pyrimethamine/sulfadiazine (2), decoquinate therapy started at 0.05 mG/kG
  success in historically relapsing horses: 100%
[7]
  cytopathic effect (CPE): 5%
[8]
  parasites or parasite induced lesions in treated infected flasks: No parasites or parasite induced lesions were seen
[9]; 0.0001 microgram/ml continuously for 10 days
  reduction in merozoite production: 40%
[9]; 0.001 microgram/ml continuously for 10 days
  reduction in merozoite production: 87%
[9]; 0.01 microgram/ml continuously for 10 days
  reduction in merozoite production: 98%
[10]
  parasites or parasite induced lesions in treated infected flasks: No parasites or parasite induced lesions were seen

## N#CC(c1ccc(Cl)cc1)c1c(Cl)cc(-n2ncc(=O)[nH]c2=O)cc1Cl (stereo not shown) [diclazuril]
[1]
  cure rate: less than 25%
  relapse rate: 60%
  efficacy in horses to improve one grade of disease: 60%
[2]; fed to horses
  time after feeding at which drug was found in serum: one
[11]
  anti-S. neurona activity in cell cultures: has anti-S. neurona activity

## c1ccc([C@H]2CN3CCSC3=N2)cc1 [levamisole]
[5]
  adverse reactions: no adverse reactions
